In patent EP4186514A1, “PHARMACEUTICAL COMPOSITION FOR PREVENTING OR TREATING CHOLANGITIS OR LIVER DISEASE CAUSED BY CHOLANGITIS COMPRISING ADENOSINE DERIVATIVE” (Future Medicine Co., Ltd., priority 2021, dated 2023):

Tests used:
BDL mouse model = assay: Efficacy in bile duct ligation (BDL) mouse model of cholangitis and liver disease; type: in vivo, C57BL/6 mice; conditions: for Hyaluronic acid values reduced: serum ELISA, compared to BDL control group (G2)
Protocol: After 23 C57BL/6 mice were prepared and subjected to quarantine and acclimation, a bile duct ligation (BDL) surgery and a sham surgery were performed by dividing the animals into groups.
The BDL rodent model is one of the most commonly used methods to induce obstructive cholestatic injury (Tag, C. G et al., Bile Duct Ligation in Mice: Induction of Inflammatory Liver Injury and Fibrosis by Obstructive Cholestasis, J. Vis. Exp. (96), e52438, doi: 10.3791/52438 (2015)). The BDL model induces liver fibrosis and inflammation by causing obstructive cholestasis, and since such symptoms are generally observed in patients with PBC after stage II, the corresponding model may adequately reflect an important aspect of PBC pathology. The advantages of the BDL model are technical validity, reproducibility, and the short time it takes to reach the pathogenomonic status of human portal hypertension.
The surgery day was set to day 0, and the test material was orally administered once a day for 2 weeks from day 1 to day 14. The dose was 10 mL/kg based on the body weight measured before administration. As a test material, a compound of formula A mixed with 0.5% methylcellulose (MC), which is a vehicle, was used, and only the vehicle was used in the control.
The treatment contents of each group are summarized as in the following Table 1.
Blood was collected through the abdominal vein under respiratory anesthesia on day 14, and serum was isolated. After blood collection, liver tissue was collected and weighed, half of the left lateral lobe from the tissue was placed in a tube and immersed in liquid nitrogen, and the other half was fixed in neutral formalin. • Blood biochemical analysis: aspartate aminotransferase (AST), alanine aminotransferase (ALT), alkaline phosphatase (ALP), γ-glutamyl transpeptidase (GGT) and total bilirubin (T-BIL) were measured using a serum biochemical analyzer (Accute, Toshiba). In addition, after blood collection, the body weight was measured by collecting liver tissue. • mRNA expression: RNA was extracted using a portion of the left lateral lobe removed from the liver tissue, cDNA was synthesized using an RNase inhibitor (DR22-R10k, Solgent, Korea) and DiaStar ™ RT Kit, and qRT-PCR was performed using Power SYBR Green PCR Master Mix (Applied Biosystems by Thermo Fisher Scientific, USA).
The following Table 2 lists sequences of primers of mouse Gapdh, Acta2(actin alpha 2 chain), Col1a1(proalpha1(I) chain) and tissue inhibitor of metalloproteinases-1 (Timp1) used for qRT-PCR.
• Analysis of cytokine levels: TNF-α, IL-1β and hyaluronic acid levels in serum were measured using an ELISA kit. • Analysis of hydroxyproline: a portion of the left lateral lobe of liver tissue was extracted, and the hydroxyproline value of liver lysate was measured by a microplate reader (SpectraMax ABS Plus, Molecular Devices) using a hydroxyproline assay kit (Abcam).
The experimental results are shown as mean ± SD, and the test material-administered group was compared with the vehicle control (BDL, G2). Statistical analysis was performed using one-way ANOVA followed by Fisher's least significant difference test using GraphPad Prism (version 5.01) and SPSS (version 24) software. P < 0.05 was considered statistically significant.

Equilibrium solubility = type: physicochemical; conditions: listed as compound of the formula A
Protocol: In order to test the physicochemical properties of the adenosine derivative of the inventive concept, experiments were conducted on the compound of the formula A in vitro, and the results are shown in Table 3. Plasma stability and protein binding were measured using rat and human plasma.

[1] = Pharmacokinetic test in rats (Experimental Examples 3 and 4); type: in vivo; conditions: male, SD, rat, plasma, po
Protocol: In order to test the ADME properties of the adenosine derivative of the inventive concept after oral administration, pharmacokinetic properties of the compound of the formula A were measured in vivo.
Intravenous administration was performed through a tube inserted into the femoral vein, and oral administration was performed using oral gavage.
After the administration, the experimental animals' blood was taken at predetermined time intervals for 24 hours. Then, the blood was centrifuged to separate plasma. The plasma samples were pretreated with a suitable organic solvent, and then the concentration of the plasma samples was analyzed by LC-MS/MS. The blood concentration-time data of the compound of the formula A was analyzed using WinNonlin (Pharsight, USA), and graphs of the blood concentration-time data are shown in FIGS. 5 through 9. The results of noncompartmental pharmacokinetic parameters calculated from the blood concentration-time data are shown in Tables 5 through 9. In FIGS. 5 through 9, I.V. represents an intravenous administration group, P.O. represents an oral administration group, and the definition of each parameter in Tables 5 through 9 is shown in Table 10.
Thus, the adenosine derivative of the inventive concept is more suitable for oral administration than for intravenous administration.

[2] = Storage stability of oral administration agent in 0.5 wt % methylcellulose (UPLC); type: physicochemical
Protocol: 0.5 wt % methylcellulose, which can be used as an excipient for oral administration, was added to the compound of the formula A, sonicated and homogenized, and then divided into a group to be stored at room temperature or at 4° C., and after 1, 3, 7, and 10 days, the stability was measured by comparing the concentration with 0.5% methyl cellulose as the control group using Waters UPLC and he results are shown in Table 12.

rats = assay: Single-dose toxicity in rats; conditions: summary Table 11
Protocol: In order to test the single-dose toxicity of the compound of the formula A, a single dose of 2,000 mg/kg of the compound of the formula A was administered to each of five male rats and five female rats.

[3] = 10 mg/kg oral once a day (G3), serum day 14, compared with BDL control group (G2)

SMILES: O[C@@H]1[C@H](O)CS[C@H]1n1cnc2c(NCc3cccc(Cl)c3)nc(Cl)nc21 [Example 2, (2R,3R,4S)-2-(2-chloro-6-(3-chlorobenzylamino)-9H-purin-9-yl)tetrahydrothiophen-3,4-diol]
- content of liver hydroxyproline decreased (BDL mouse model; 10 mg/kg (G3), liver lysate): 39%
- Hyaluronic acid values reduced (BDL mouse model; 10 mg/kg (G3)): 51%
- AAR decreased (BDL mouse model; [3]): 21%
- ALT decreased (BDL mouse model; [3]): 37%
- AST decreased (BDL mouse model; [3]): 48%
- Hyaluronic acid values reduced (BDL mouse model; 30 mg/kg (G4)): 47%
- AST decreased (BDL mouse model; 30 mg/kg oral once a day (G4), serum day 14, compared with BDL control group (G2)): 38%
- Acta2 mRNA levels (BDL mouse model; liver tissue, qRT-PCR, BDL groups G3 (10 mg/kg) and G4 (30 mg/kg)): decreased
- Equilibrium solubility (Equilibrium solubility): 2.76 µg/mL
- bioavailability ([1]; read-out: bioavailability Ft): ≥ 99.9%
- half-life ([1]; read-out: half-life T1/2): ≥ 3.34 h
- Stability (%) ([2]; Stored at 4°C, After 1 day, 200 µg/ml): 118±21.4%
- Stability (%) ([2]; Stored at 4°C, After 1 day, 1000 µg/ml): 76.5±11.7%
- Stability (%) ([2]; Stored at 4°C, After 1 day, 3000 µg/ml): 84.8±17.9%
- Stability (%) ([2]; Stored at 4°C, After 3 days, 200 µg/ml): 125±40.2%
- Stability (%) ([2]; Stored at 4°C, After 3 days, 1000 µg/ml): 87.6±9.26%
- Stability (%) ([2]; Stored at 4°C, After 3 days, 3000 µg/ml): 94.8±2.55%
- Stability (%) ([2]; Stored at 4°C, After 7 days, 200 µg/ml): 88.3±17.3%
- Stability (%) ([2]; Stored at 4°C, After 7 days, 1000 µg/ml): 80.1±27.7%
- Stability (%) ([2]; Stored at 4°C, After 7 days, 3000 µg/ml): 89.7±8.30%
- Stability (%) ([2]; Stored at 4°C, After 10 days, 200 µg/ml): 93.8±44.8%
- Stability (%) ([2]; Stored at 4°C, After 10 days, 1000 µg/ml): 79.5±22.0%
- Stability (%) ([2]; Stored at 4°C, After 10 days, 3000 µg/ml): 99.0±3.87%
- Stability (%) ([2]; Stored at RT, After 1 day, 200 µg/ml): 84.3±4.10%
- Stability (%) ([2]; Stored at RT, After 1 day, 1000 µg/ml): 82.7±16.3%
- Stability (%) ([2]; Stored at RT, After 1 day, 3000 µg/ml): 90.5±6.44%
- Stability (%) ([2]; Stored at RT, After 3 days, 200 µg/ml): 76.3±8.12%
- Stability (%) ([2]; Stored at RT, After 3 days, 1000 µg/ml): 82.7±37.0%
- Stability (%) ([2]; Stored at RT, After 3 days, 3000 µg/ml): 80.5±5.01%
- Stability (%) ([2]; Stored at RT, After 7 days, 200 µg/ml): 80.9±14.6%
- Stability (%) ([2]; Stored at RT, After 7 days, 1000 µg/ml): 75.4±6.66%
- Stability (%) ([2]; Stored at RT, After 7 days, 3000 µg/ml): 101±13.2%
- Stability (%) ([2]; Stored at RT, After 10 days, 200 µg/ml): 90.3±23.2%
- Stability (%) ([2]; Stored at RT, After 10 days, 1000 µg/ml): 94.2±9.17%
- Stability (%) ([2]; Stored at RT, After 10 days, 3000 µg/ml): 92.2±2.17%
- Toxicity, Single-dose toxicity evaluation (rats): Not detected
